Among the data in ChEMBL document CHEMBL1126601, “Synthesis of a photoaffinity analog of taxol as an approach to identify the taxol binding site on microtubules” (J Med Chem, 1993) are EC50 and Ki values, retold here.

One experiment deals with J774. The experiment in a line: Drug concentration that inhibits cell division by 50% after 72 hr incubation for murine like macrophage cell line J774.2. Type of experiment: functional. The note with it: Mus musculus, J774, 72 h; read-out: ED50 (the source's name).
The species named for another experiment is Mus musculus. Kind of experiment: Ability to inhibit binding of [3H]taxol was determined. It is filed as functional.

SMILES strings stand for the structures.

One may read the Ki as the equilibrium dissociation constant of an inhibitor or competing ligand from its target. Lower therefore signals tighter binding. `CC(=O)O[C@H]1C(=O)[C@@]2(C)C([C@H](CC(=O)c3ccccc3)[C@]3(O)C[C@H](OC(=O)[C@H](O)C(NC(=O)c4ccccc4)c4ccccc4)C(C)=C1C3(C)C)[C@]1(OC(C)=O)CO[C@@H]1C[C@@H]2O` (some centres not stated): the EC50 with J774 amounted to 50 nM. The molecule also displayed a Ki in the experiment filed under Mus musculus of 2000 nM.
